Reference: US9095587B2, “Methods and compositions for improved nerve conduction velocity” (Spinifex Pharmaceuticals Pty Ltd, priority 2010, dated 2015)
Values joined by “and” are separate entries in the source; they are usually repeats but may differ in a detail not shown here. Equal entries are not always repeated. Structures can show the parent of a compound that is named as a salt.

What was measured:
diabetic rats [1] = experiment: Tactile allodynia, electronic von Frey hair apparatus, diabetic rats; format: in vivo, rat
Procedure: (§1) Diabetes was induced in mature (19 week old) male Sprague-Dawley by a single STZ injection (40-45 mg/kg i.p.). The diabetic state was monitored weekly using commercially available test strips for blood (tail vein) and urine glucose levels. Body weight was also monitored daily. The criteria for the diabetic state were: blood glucose>19.9 mM, glycosuria, and no evidence of body weight gain.
Tactile allodynia thresholds for the foot were measured by an electronic von Frey hair apparatus. Latencies for foot withdrawal reflexes to noxious thermal stimulation were estimated by the Hargreaves plantar test (Hargreaves K, Dubner R, Brown F, Flores C, Joris J. A new and sensitive method for measuring thermal nociception in cutaneous hypeialgesia. Pain 1988; 32: 77-88). All tests were carried out using commercially available equipment (Ugo-Basile, Comerio, Italy). […]
Tactile allodynia was estimated on two separate occasions; once on a day before treatment was initiated, and then on the day immediately following the last day of the treatment period. […] Thus, stimulus intensity tracked the threshold, and a run of 6 near-threshold responses was used to estimate the 50% threshold value using lookup tables (Chaplan S R, Bach F W, Pogrel J W, Chung J M, Yaksh T L. Quantitative assessment of tactile allodynia in the rat paw. J Neurosci Meth 1994; 53: 55-63). […]

diabetic rats [2] = experiment: Saphenous sensory nerve conduction velocity in STZ-diabetic rats; format: in vivo, rat; settings: for Sensory NCV, Mean: group mean of 10 diabetic rats; for Sensory NCV, Mean / Sensory NCV: last 2 weeks of 8 weeks diabetes; for Sensory NCV: individual diabetic rats
Procedure: as §1, with “Methods: Diabetes” for “Diabetes”
Sensory NCV was measured for sensory saphenous nerve between groin and mid-calf in a similar fashion, except that direct nerve evoked potentials were recorded at the ankle using a unipolar platinum hook electrode.
as §1, with “Methods: Diabetes” for “Diabetes”, “also be” for “also”
(§2) In final experiments, rats were anaesthetized with thiobutabarbital (50-100 mg kg-1 i.p.) The trachea was cannulated for artificial respiration. The level of anaesthesia was monitored by observing any reaction of blood pressure to manipulation, supplementary thiobutabarbital anaesthetic being given as necessary. The sciatic nerve was exposed between the sciatic notch and knee. Bipolar stimulating electrodes were placed close to the nerve at the notch and knee. A concentric bipolar electrode was inserted into tibialis anterior muscle to monitor evoked electromyographic (EMG) activity. Potentials evoked from each stimulating site were averaged 0.8 times. Motor NCV was calculated by dividing the distance between stimulating electrodes by the average latency difference between the onsets of EMG potentials evoked from the 2 sites. Nerve temperature was monitored using a thermocouple probe, and maintained in the range 36-38° C. by radiant heat. Body temperature was also maintained around 37° C. using a heated blanket. Sensory NCV was measured for sensory saphenous nerve between groin and mid-calf in a similar fashion, except that direct nerve evoked potentials were recorded at the ankle using a unipolar platinum hook electrode. Reference values for comparison of the NCV data were obtained from nondiabetic control and 8 week diabetic control rats.
as §1
as §2, with “8” for “0.8”, “Reference values for comparison of the NCV data were obtained from nondiabetic control and 8 week diabetic control rats.” left out

diabetic rats [3] = experiment: Sciatic motor nerve conduction velocity in STZ-diabetic rats; format: in vivo, rat; settings: for Motor NCV, Mean: group mean of 10 diabetic rats; for Motor NCV, Mean / Motor NCV: last 2 weeks of 8 weeks diabetes; for Motor NCV: individual diabetic rats
Procedure: as §1, with “Methods: Diabetes” for “Diabetes”
as §2, with “necessary. As described in detail by Cameron et al., (Q. J. Expt Physiol, 74; 917-926, 1989 and Diabetes, 40:532-539, 1991), the” for “necessary. The”, “averaged 8” for “averaged 0.8”, “Motor nerve conduction velocity (NCV)” for “Motor NCV”, “blanket.” for “blanket. Sensory NCV was measured for sensory saphenous nerve between groin and mid-calf in a similar fashion, except that direct nerve evoked potentials were recorded at the ankle using a unipolar platinum hook electrode. Reference values for comparison of the NCV data were obtained from nondiabetic control and 8 week diabetic control rats.”
as §1, with “Methods: Diabetes” for “Diabetes”, “also be” for “also”
as §2, §1
In final experiments, rats were anaesthetized with thiobutabarbital (50-100 mg kg-1 i.p.) The trachea was cannulated for artificial respiration. […]

[4] = Body weight, blood glucose and general condition of treated diabetic rats; format: in vivo, rat; settings: for End weight, Mean: group mean of 10 diabetic rats; for End weight, Mean / End weight: last 2 weeks of 8 weeks diabetes; for End weight: individual diabetic rats
Procedure: as §1, with “Methods: Diabetes” for “Diabetes”
as §1, with “Methods: Diabetes” for “Diabetes”, “also be” for “also”

diabetic rats [5] = experiment: Thermal hyperalgesia, Hargreaves plantar test, diabetic rats; format: in vivo, rat
Procedure: as §1
Tactile allodynia thresholds for the foot were measured by an electronic von Frey hair apparatus. Latencies for foot withdrawal reflexes to noxious thermal stimulation were estimated by the Hargreaves plantar test (Hargreaves K, Dubner R, Brown F, Flores C, Joris J. A new and sensitive method for measuring thermal nociception in cutaneous hypeialgesia. Pain 1988; 32: 77-88). All tests were carried out using commercially available equipment (Ugo-Basile, Comerio, Italy). Measurements were made in a constant temperature room at the same time each day, and rats were given a 3-day period for familiarization with handling, the environment, equipment, and experimental procedure.
In a similar way to the assessment of tactile allodynia, thermal sensitivity was also measured on 2 separate occasions, before and after treatment. […] After 30 min acclimatization, a constant power infrared stimulus was focused onto the sole of the foot and the latency for reflex foot withdrawal recorded via a photoelectric monitor. […]

[6] = molecular target: AT2 (h) human recombinant (Hela cells) (Homo sapiens, UniProt P50052); settings: competition curve, Hill equation curve fitting
Chain of AT2 (h) human recombinant (Hela cells) (P50052 whole entry): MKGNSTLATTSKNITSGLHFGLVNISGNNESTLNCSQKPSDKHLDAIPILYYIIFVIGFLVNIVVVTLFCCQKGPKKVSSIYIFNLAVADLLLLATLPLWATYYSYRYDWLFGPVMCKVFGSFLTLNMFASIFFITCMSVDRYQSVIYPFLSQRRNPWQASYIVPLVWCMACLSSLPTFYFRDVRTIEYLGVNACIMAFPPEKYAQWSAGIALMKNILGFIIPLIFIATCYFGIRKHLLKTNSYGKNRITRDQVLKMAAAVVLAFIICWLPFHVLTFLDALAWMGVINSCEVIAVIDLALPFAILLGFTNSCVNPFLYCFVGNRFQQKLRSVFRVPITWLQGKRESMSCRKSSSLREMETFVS
Procedure: (§3) The specific ligand binding to the receptors is defined as the difference between the total binding and the nonspecific binding determined in the presence of an excess of unlabelled ligand. […] The IC50 values (concentration causing a half-maximal inhibition of control specific binding) and Hill coefficients (nH) were determined by non-linear regression analysis of the competition curves using Hill equation curve fitting. The inhibition constants (Ki) were calculated from the Cheng Prusoff equation (Ki=IC50/(1+(L/KD)), where L=concentration of radioligand in the assay, and KD=affinity of the radioligand for the receptor).

[7] = molecular target: T1, AT1 (h) human recombinant (CHO cells) (Homo sapiens, UniProt P30556); experiment: AT1 (h) receptor binding assay; settings: [125I][Sar1, Ile8]-AT II 0.05 nM, 60 min./37° C.; highest tested concentration
T1 construct: expressed in transfected cells; host or cells: CHO cells
T1 sequence (P30556 1-359): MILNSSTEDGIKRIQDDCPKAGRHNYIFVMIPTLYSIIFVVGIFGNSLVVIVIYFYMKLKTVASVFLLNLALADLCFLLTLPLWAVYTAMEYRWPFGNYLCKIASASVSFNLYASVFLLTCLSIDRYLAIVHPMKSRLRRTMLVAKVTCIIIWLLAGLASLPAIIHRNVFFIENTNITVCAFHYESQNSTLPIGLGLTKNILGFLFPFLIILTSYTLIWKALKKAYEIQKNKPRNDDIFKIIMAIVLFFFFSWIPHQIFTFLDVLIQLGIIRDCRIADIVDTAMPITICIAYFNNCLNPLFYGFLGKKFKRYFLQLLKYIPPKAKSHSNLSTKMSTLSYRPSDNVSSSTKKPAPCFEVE
Procedure: as §3

[8] = 1.048 mg/kg by oral gavage, 1 day, before vs after drug
[9] = 1.048 mg/kg daily by oral gavage
[10] = 1.048 mg/kg daily by oral gavage, 28 days
[11] = 0.01048 mg/kg daily by gavage, 0.01048 mg/kg
[12] = 0.0349 mg/kg daily by gavage, 0.0349 mg/kg
[13] = 0.1048 mg/kg daily by gavage, 0.1048 mg/kg
[14] = 1.048 mg/kg daily by gavage, 1.048 mg/kg
[15] = 1.048 mg/kg daily by gavage for 2 weeks

SMILES: COc1ccc2c(c1OCc1ccccc1)C[C@@H](C(=O)O)N(C(=O)C(c1ccccc1)c1ccccc1)C2 [Compound 1 sodium salt, S-2-(diphenylacetyl)-5-benzyloxy-6-methoxy-1,2,3,4-tetrahydroisoquinoline-3-carboxylic acid]
- effect on tactile allodynia of only 1 day of treatment (paired Student's t) (diabetic rats [1]; [8]): significant, albeit partial
- treatment duration to full correction of tactile allodynia (diabetic rats [1]; [9]): 3 days
- diabetic deficit corrected, saphenous sensory NCV (diabetic rats [2]; 1.048 mg/kg daily by gavage for 2 weeks, p<0.001, vs reference groups): 99.1±5.0%
- treatment duration after which sensory NCV was statistically within the nondiabetic range (diabetic rats [2]; [9]): 3 days
- sensory NCV, 28-day treatment group versus 14-day data (diabetic rats [2]; [10]): entirely comparable with the previously obtained 14-day data
- ED50 (diabetic rats [2]; Rattus norvegicus, 336 h, oral, daily for 2 weeks, best fit sigmoid curve, read-out: ED50, correction of saphenous sensory NCV deficit): 0.02 mg/kg
- Sensory NCV, Mean (diabetic rats [2]; 0.01048 mg/kg daily by gavage): 53.93 m/s
- Sensory NCV, Mean (diabetic rats [2]; 0.0349 mg/kg daily by gavage): 57.25 m/s
- Sensory NCV, Mean (diabetic rats [2]; 0.1048 mg/kg daily by gavage): 60.73 m/s
- Sensory NCV, Mean (diabetic rats [2]; 1.048 mg/kg daily by gavage): 61.10 m/s
- Sensory NCV (diabetic rats [2]; [11]): 55.47 m/s and 56.07 m/s and 51.59 m/s and 54.39 m/s and 55.30 m/s and 51.82 m/s and 51.85 m/s and 55.81 m/s and 53.85 m/s and 53.19 m/s
- Sensory NCV (diabetic rats [2]; [12]): 57.43 m/s and 57.94 m/s and 55.60 m/s and 59.95 m/s and 56.00 m/s and 57.50 m/s and 55.93 m/s and 57.73 m/s and 57.72 m/s and 56.72 m/s
- Sensory NCV (diabetic rats [2]; [13]): 61.11 m/s and 62.96 m/s and 61.22 m/s and 56.67 m/s and 63.16 m/s and 62.50 m/s (2×) and 63.04 m/s and 58.33 m/s and 55.83 m/s
- Sensory NCV (diabetic rats [2]; [14]): 62.50 m/s (4×) and 60.63 m/s and 60.41 m/s and 60.71 m/s and 57.57 m/s and 60.98 m/s and 60.74 m/s
- treatment duration after which motor NCV was statistically within the nondiabetic range (diabetic rats [3]; [9]): 7 days
- motor NCV, 28-day treatment group versus 14-day data (diabetic rats [3]; [10]): entirely comparable with the previously obtained 14-day data
- ED50 (diabetic rats [3]; Rattus norvegicus, 336 h, oral, daily for 2 weeks, best fit sigmoid curve, read-out: ED50, correction of sciatic motor NCV deficit): 0.044 mg/kg
- Motor NCV, Mean (diabetic rats [3]; 0.01048 mg/kg daily by gavage): 53.25 m/s
- Motor NCV, Mean (diabetic rats [3]; 0.0349 mg/kg daily by gavage): 56.68 m/s
- Motor NCV, Mean (diabetic rats [3]; 0.1048 mg/kg daily by gavage): 60.51 m/s
- Motor NCV, Mean (diabetic rats [3]; 1.048 mg/kg daily by gavage): 63.72 m/s
- Motor NCV (diabetic rats [3]; [11]): 54.92 m/s and 55.17 m/s and 54.10 m/s and 50.78 m/s and 54.03 m/s and 51.60 m/s and 51.96 m/s and 56.90 m/s and 50.70 m/s and 52.38 m/s
- Motor NCV (diabetic rats [3]; [12]): 56.15 m/s and 57.38 m/s and 56.90 m/s and 57.89 m/s and 59.32 m/s and 56.67 m/s and 53.68 m/s and 58.18 m/s and 54.55 m/s and 56.06 m/s
- Motor NCV (diabetic rats [3]; [13]): 59.13 m/s and 61.48 m/s and 60.00 m/s (2×) and 58.62 m/s and 63.63 m/s and 64.15 m/s and 59.02 m/s and 60.78 m/s and 58.33 m/s
- Motor NCV (diabetic rats [3]; [14]): 62.87 m/s and 62.30 m/s and 62.84 m/s and 62.50 m/s and 63.90 m/s and 62.69 m/s and 64.95 m/s and 61.75 m/s and 69.57 m/s and 63.81 m/s
- condition of animals at the end of the experimental period [4, 15]: in good condition and behaviourally alert
- condition of animals at the end of the experimental period ([4]; 0.1048, 0.0349 or 0.01048 mg/kg daily by gavage for 2 weeks): in good condition and behaviourally alert
- End weight, Mean ([4]; 0.01048 mg/kg daily by gavage): 372 g
- End weight, Mean ([4]; 0.0349 mg/kg daily by gavage): 357 g
- End weight, Mean ([4]; 0.1048 mg/kg daily by gavage): 369 g
- End weight, Mean ([4]; 1.048 mg/kg daily by gavage): 390 g
- End weight [4, 11]: 374 g and 436 g and 346 g and 438 g and 349 g and 329 g and 364 g and 385 g and 386 g and 312 g
- End weight [4, 12]: 369 g and 427 g and 400 g and 396 g and 332 g and 307 g and 277 g and 327 g and 368 g (2×)
- End weight [4, 13]: 398 g and 363 g and 298 g and 315 g and 357 g and 346 g and 392 g and 405 g and 374 g and 440 g
- End weight [4, 14]: 429 g and 380 g and 389 g and 393 g and 390 g and 353 g and 366 g and 418 g and 360 g and 425 g
- effect on thermal hyperalgesia of only 1 day of treatment (paired Student's t) (diabetic rats [5]; [8]): significant, albeit partial
- treatment duration to full correction of thermal hyperalgesia (diabetic rats [5]; [9]): 3 days

SMILES: COc1ccc2c(c1OCc1ccccc1)C[C@@H](C(=O)O)N(C(=O)C(c1ccccc1)c1ccccc1)C2 [Compound 1, S-2-(diphenylacetyl)-5-benzyloxy-6-methoxy-1,2,3,4-tetrahydroisoquinoline-3-carboxylic acid]
- nH (Hill coefficient) [6]: 1.3
- Flags (IC50 determination) [7]: N.C. (Not calculable. IC50 value is not calculable because of less than 25% inhibition at the highest tested concentration.)
- sciatic motor NCV compared with nondiabetic control group (one way ANOVA, Bonferroni test) (diabetic rats [3]; [15]): not significantly different
- reversal of the diabetic deficit, sciatic motor NCV (diabetic rats [3]; 1.048 mg/kg daily by gavage for 2 weeks, vs nondiabetic and diabetic reference groups): 92.6±5.4%
